Like-named read-outs stand apart in the source and are kept apart here. Blank lines part the entries; values can stand above or below the compound they belong to.
Key:
RKO cells = test: MTT cell viability assay, RKO cells; conditions: 48 h; for cell death in RKO compared with RKO-E6 cells: isogenic pair; for EC50: read-out: Cytotoxic Potency (EC50) RKO
p53 = p53 accumulation, ratio RKO-E6 cells/RKO cells (immunoblot, densitometry); type: cell-based, human; conditions: 6 h; etoposide 50 μM, MG115, NSC-302979, DBA 20 μM, others 60 μM
Protocol: (§1) A) Accumulation of polyubiquitin. RKO-E6 cells were treated with DMSO vehicle for 24 h, 37° C., or with the concentrations of test compounds that gave 80% cell death (as determined by cell viability assay at 48 h) for 6, 12, or 24 h, 37° C. […] Schematic depicting p53 degradation via the proteasome pathway in RKO cells versus RKO-E6 cells. The activity of the HPV E6 oncoprotein hastens p53 degradation in RKO-E6 cells. ii. RKO and RKO-E6 cells were treated with vehicle, etoposide (50 μM), MG115 (20 μM), Δ12-PGJ2 (60 μM), NSC-302979 (20 μM, DBA (20 μM), curcumin (60 μM), PGB1 (60 μM), NSC-156236, (60 XM)or DPTP 60 μM for 6 h, 37° C. Lysates were fractionated by SDS-PAGE and their p53 content determined immunochemically. iii. p53 levels were measured by densitometry and the ratio of p53 protein in RKO-E6 cells/RKO cells calculated.
(§2) The medium was removed and cells lysed in 50 mM Tris, pH 7.4, 100 mM NaCl, 2 mM EDTA with 0.1% SDS, 0.1% deoxycholate, 1× complete protease inhibitor mixture. Protein concentration was measured by the Bradford method. Equal portions of the total cell lysate were fractionated from each sample (12.5 μg of protein) by SDS-PAGE. Proteins were transferred to poly(vinylidene difluoride) blocked with 5% (w/v) nonfat dry milk in Trisbuffered saline [20 mM Tris-HCl, pH 7.5, 100 mM sodium chloride, 0.1% (v/v) Tween 20]. Proteins were detected immunochemically by using primary antibodies directed against p53 (1:4000) or ubiquitin (1:1000), followed by horseradish peroxidase-conjugated secondary antibodies (1:4000). Antigen-antibody complexes were detected with enhanced chemiluminescence reagents. Gels were scanned and quantified intensities using Kodak 1D Image Analysis Software.

ubiquitin isopeptidases [1] = test: Ubiquitin isopeptidase activity, z-LRGG-AMC substrate, lysates of treated RKO and HCT 116 cells; type: cell-based, human; conditions: cells treated 6, 20 or 60 μM, 12 h
Protocol: RKO (upper) and HCT 116 ^+/+ cells (lower) were treated with DMSO vehicle, 6, 20, or 60 μM of Δ12-PGJ2, DBA, NSC-302979, or curcumin, 60 μM PGB1, 60 μM NSC-156236, or 60 μM DPTP for 12 h at 37° C. Cell lysates (0.5 mg/mL) from each treatment were incubated with the isopeptidase substrate, z-LRGG-AMC, for 3 h, 37° C. The amount of AMC cleaved by isopeptidase was determined fluorometrically, as described in Materials and Methods.
The second assay used a fluorescent tetrapeptide, z-LRGG-AMC, as a substrate that mimics the carboxy-terminus of ubiquitin. Isopeptidase activity hydrolyzes the bond between the c-terminal glycine and the fluorophore. This tetrapeptide also undergoes slow proteolysis by the catalytic subunit of the proteasome. To minimize this background rate of proteolysis cell lysates were incubated with 30 μM MG115 for 30 minutes at 4° C., prior to substrate incubation (>90% proteasome inhibition). Cells were teeated as above, lysed in 250 μL of lysis buffer per sample, and adjusted protein concentration to 0.5 mg/mL prior to incubation with MG115. Next, z-LRGG-AMC substrate was added and fluorescence was quantified of the AMC moiety cleaved by isopeptidase action.

HCT 116 −/− cells = test: MTT cell viability assay, HCT 116 p53 −/− cells; conditions: read-out: Cytotoxic Potency (EC50) HCT −/−
[2] = test system: polyubiquitin conjugates in RKO-E6 cells; test: Accumulation of polyubiquitin in RKO-E6 cells (immunoblot); type: cell-based, human; conditions: EC80 or 60 μM, 6-24 h
Protocol: as §1, §2

[3] = test system: cell lines with mutant/deleted p53; conditions: mean of 41-42 cell lines with mutant/deleted p53, cited from earlier work
HCT 116 +/+ cells = test: MTT cell viability assay, HCT 116 p53 +/+ cells; conditions: for cell death in HCT 116 +/+ compared with HCT 116 −/− cells: isogenic pair; for EC50: read-out: Cytotoxic Potency (EC50) HCT +/+
Protocol: (§5) Cell viability was measured with MTT reagent as described in materials and methods.
(§6) Cell viability was detected by the MTT assay. Briefly, 1×10^5 cells were incubated per well of a sterile, 96-well assay plate with 0-60 μM of test compounds for 48 hours. MTT reagent was added to each well, final concentration of 0.5 mg/mL, and incubated for an additional 3 hours. The media was aspirated and remaining MTT reagent from each well and added 100 μL of HCl:isopropanol (1:24). The absorbance of each sample was measured at 405 nm.

ubiquitin isopeptidases [4] = test: Ubiquitin isopeptidase activity, Ub-PEST substrate, lysates of treated RKO and HCT 116 cells; type: cell-based, human; conditions: cells treated 6, 20 or 60 μM, 12 h
Protocol: A) Inhibition of isopeptidase proteolysis of Ub-PEST substrate. RKO and HCT 116 cells were treated with DMSO vehicle, 6, 20, or 60 μM of Δ12-PGJ2, DBA, NSC-302979, or curcumin, 60 μM PGB1, 60 μM NSC-156236, or 60 μM DPTP for 12 h, 37° C. Cell lysates from each treatment were incubated with Ub-PEST, as described in materials and methods. Samples were fractionated by SDS-PAGE and proteins detected with ubiquitin epitopes immunochemically (HCT 116 ^+/+ western blot shown as example of raw data). […] B) Inhibition of isopeptidase activity by test panel compounds. Isopeptidase activity was determined by measuring via densitometry, the amount of Ub generated by isopeptidase cleavage of Ub-PEST. Bar graph patterns are DMSO vehicle (black), Δ12-PGJ2 (hatched), DBA (horizontal lines), NSC-302979 (white), PGB1 (diagonally downward right lines), and NSC-156236 (diagonally downward left lines). The amount of Ub generated in the vehicle treated sample (panel A, lane 2) is arbitrarily designated 100%.
Cellular isopeptidase enzymatic activity was measured with two assays that used different substrates. In one assay ubiquitin-PEST (Ub-PEST) was used, a full-length ubiquitin molecule with an 18 amino acid c-terminal peptide extension (total mass=10.5 kDa). Ubiquitin isopeptidases specifically cleave the 18 amino acid peptide extension, releasing full-length ubiquitin (8.5 kDa).
Briefly, 6×10^5 cells were incubated with 0-60 μM of test compounds for 12 hrs. Cells were lysed in 50 μL of 25 mM HEPES, 5 mM EDTA, 0.1% CHAPS, 5 mM ATP, pH 7.5. The protein concentration of each sample was adjusted to 0.3 mg/mL and incubated with 50 μg/mL Ub-PEST for 45 minutes at 25° C. Under these conditions, Ub-PEST hydrolysis occurs at a linear rate. 20 μL samples were mixed with 20 μL 2× Laemmli buffer, boiled briefly, and fractionated by SDSPAGE. Isopeptidase activity was monitored by determining the amount of product (8.5 kDa ubiquitin) formation.

RKO-E6 cells = test: MTT cell viability assay, RKO-E6 cells; conditions: for EC50: read-out: Cytotoxic Potency (EC50) RKO-E6
Protocol: as §5, §6

[5] = test system: cell lines with Wild type p53; conditions: cited from earlier work
HCT 116 (p21 wt) = test: MTS cytotoxicity, HCT 116 (p21 wt); type: cell-based; conditions: Homo sapiens, log of EC50 in μM, 48 h, read-out: Log EC50 +/− Standard Error of Log EC50, HCT 116 (p21 wt) (converted)
Source text: (§3) Cytotoxicity in Human Colon Tumor (HCT) Cell Lines. To determine if punaglandins elicit cytotoxicity independently of the tumor-suppressor p53, as do other dienone prostaglandins, several cytotoxicity assays were employed. First, cell death effects of all isolated punaglandins were investigated in pairs of isogenic colon cancer cell lines, the HCT 116^+/+ competent cell line and HCT 116^−/− null cell lines. HCT 116^+/+ cells are homozygous for p53^+/+ and p21^+/+; where as, HCT 116^−/− cells lack both alleles for p53 (p53^−/−) or p21 (p21^−/−).
(§4) Each cell line was seeded simultaneously in 96-well plates and incubated for 24 h before treatment with individual punaglandins at various concentrations for 48 additional h. Cytotoxicity was determined using MTS and absorbances were recorded at 490 nm. Half maximal effective concentrations (EC50) and Log EC50s were calculated from a concentration-response curve generated using GraphPad Prism (Table 1).

ubiquitin isopeptidases [6] = test: In vitro isopeptidase activity in HCT 116 lysates, Ub-PEST; type: biochemical, human; conditions: HCT 116 lysates, 45 min
Protocol: Isopeptidase Assay. It was hypothesized that the punaglandins would inhibit ubiquitin-isopeptidase activity of the proteasome pathway as does the prostaglandin, Δ^12-PGJ2 (1), but with greater potency because of the chlorinated C-10. To validate this theory, cellular isopeptidase enzymatic activity was measured in vitro after treatment with individual punaglandins, PNG 2 (6), PNG 3 (7), and Z-PNG 4 (9) and in vivo after individual treatment with PNG 4 (8) and PNG 6 (10). This activity was determined utilizing the simple isopeptidase substrate, ubiquitin-PEST (Ub-PEST), a full/length ubiquitin (Ub) molecule fused with an 18-amino acid C-terminal peptide extension that most isopeptidases use as a substrate. The polypeptide extension contains regions rich in Pro (P), Glu (E), Ser (S), and Thr (T) residues called PEST motifs that are responsible for rapid degradation of these and other unstable proteins. Ub isopeptidases specifically cleave this peptide extension, yielding free, full-length Ub. Both the fused Ub-PEST (10.5 kDa) and the cleaved, free Ub (8.5 kDa) can be observed via immunochemical detection.
In Vitro Isopeptidase Activity. PNG 2 (6), PNG 3 (7), and Z-PNG 4 (9) were initially analyzed for isopeptidase activity in vitro in HCT 116 lysates. Cells were lysed with isopeptidase activity buffer and protein concentration adjusted to 0.3 mg/mL per sample. Each sample was subsequently incubated with 2 μM, 6 μM, 20 μM, 60 μM, or 200 μM of PNG 2 (6), PNG 3 (7), Z-PNG 4 (9), Δ^12-PGJ2 (1), and PGA1 (2) in addition to 50 μg/ml of Ub-PEST. Negative control cells were treated with vehicle (0.5% DMSO) and equivalent Ub-PEST. […] The amount of fused Ub-PEST and free Ub product was determined by SDS-PAGE fractionation.

HCT 116 (p53 wt) = test: MTS cytotoxicity, HCT 116 (p53 wt); type: cell-based; conditions: Homo sapiens, 48 h
Source text: as §3, §4

HCT 116 (p53^−/−) = test: MTS cytotoxicity, HCT 116 (p53−/−); type: cell-based; conditions: Homo sapiens, log of EC50 in μM, 48 h, read-out: Log EC50 +/− Standard Error of Log EC50, HCT 116 (p53−/−) (converted)
Source text: as §3, §4

HCT 116 (p21^−/−) = test: MTS cytotoxicity, HCT 116 (p21−/−); type: cell-based; conditions: Homo sapiens, log of EC50 in μM, 48 h, read-out: Log EC50 +/− Standard Error of Log EC50, HCT 116 (p21−/−) (converted)
Source text: as §3, §4

SMILES: CC1=CC(=O)C2=C(C)CCC3C(C)C(=O)OC3C12 (stereo not drawn) [NSC-156236, achillin]
- cell death in RKO compared with RKO-E6 cells (RKO cells; MTT): did not cause significant cell death
- EC50 (RKO cells; MTT): > 60 µM
- ratio of p53 protein [RKO-E6 cells/RKO cells] (p53): significantly less than unity
- inhibition of z-LRGG-AMC hydrolysis by ubiquitin isopeptidases (ubiquitin isopeptidases [1]): did not
- EC50 (HCT 116 −/− cells; 48 h, MTT): > 60 µM
- cellular accumulation of polyubiquitin conjugates [2]: did not cause appreciable cellular accumulation of ubiquitin conjugates
- Mutant p53 Mean LC50 [3]: Inactive
- cell death in HCT 116 +/+ compared with HCT 116 −/− cells (HCT 116 +/+ cells; 48 h, MTT): did not cause significant cell death
- EC50 (HCT 116 +/+ cells; 48 h, MTT): > 60 µM
- inhibition of isopeptidase cleavage of Ub-PEST (ubiquitin isopeptidases [4]): did not inhibit isopeptidase activity
- EC50 (RKO-E6 cells; 48 h, MTT): > 60 µM
- cytotoxic activity in NCI 60 cell line cancer screening data [5]: no appreciable cytotoxic activity
- Wild Type p53 Mean LC50 ([5]; mean of 18 cell lines with wild type p53): Inactive

SMILES: COc1cc(/C=C/C(=O)CC(=O)/C=C/c2ccc(O)c(OC)c2)ccc1O [Curcumin, curcumin]
- cell death in RKO compared with RKO-E6 cells (RKO cells; MTT): caused cell death with equal potency and efficacy
- EC50 (RKO cells; Homo sapiens, RKO): 12.5 ± 5.9 µM
- ratio of p53 protein [RKO-E6 cells/RKO cells] (p53): approached unity
- inhibition of z-LRGG-AMC hydrolysis by ubiquitin isopeptidases (ubiquitin isopeptidases [1]): inhibited ubiquitin isopeptidase activity
- EC50 (HCT 116 −/− cells; Homo sapiens, HCT-116, 48 h): 8.6 ± 1.3 µM
- cellular accumulation of polyubiquitin conjugates [2]: protein species with polyubiquitin conjugation accumulated in cells
- CC50 ([3]; read-out: Mutant p53 Mean LC50): 68 µM
- cell death in HCT 116 +/+ compared with HCT 116 −/− cells (HCT 116 +/+ cells; 48 h, MTT): caused cell death with equal potency
- EC50 (HCT 116 +/+ cells; Homo sapiens, HCT-116, 48 h): 9.7 ± 1.1 µM
- inhibition of isopeptidase cleavage of Ub-PEST (ubiquitin isopeptidases [4]): inhibited isopeptidase activity in a concentration dependent manner
- EC50 (RKO-E6 cells; Homo sapiens, RKOE6, 48 h): 14.9 ± 8.5 µM
- EC80, concentration that gave 80% cell death (RKO-E6 cells; cell viability assay at 48 h, RKO-E6 cells): 17 µM
- p53 dependence in NCI 60 cell line cancer screening data ([5]; analysis according to O'Connor et al., 1997): act independently of p53

- concentration at which inhibition of Ub-PEST degradation is initially observed (ubiquitin isopeptidases [6]): 20 µM
- concentration of complete (total) inhibition of Ub-PEST degradation (ubiquitin isopeptidases [6]): 60 µM
SMILES: CC/C=C\C/C=C\C[C@@]1(O)C=C(Cl)C(=O)/C1=C/[C@H](OC(C)=O)[C@H](CCCC(=O)OC)OC(C)=O [PNG 3]
- EC50 (HCT 116 (p21 wt)): 0.288 µM
- EC50 (HCT 116 (p53 wt); average over the three compounds, read-out: average EC50 of PNG 3, PNG 4 and PNG 6, cytotoxicity in HCT 116 cell lines): ~0.35 µM
- EC50 (HCT 116 (p53 wt); log of EC50 in μM, read-out: Log EC50 +/− Standard Error of Log EC50, HCT 116 (p53 wt) (converted)): 0.324 µM
- EC50 (HCT 116 (p53^−/−)): 0.372 µM
- EC50 (HCT 116 (p21^−/−)): 0.295 µM

Source: US20060106099A1, “Novel inhibitors of ubiquitin isopeptidases” (priority 2002, published 2006)
